{"source": "patent US20070043327A1", "about": "“Drug delivery device comprising a mesh sleeve” (priority 2003, published 2007)", "key": {"[1]": {"assay": "release of mefenamic acid from intravaginal devices into water", "format": "physicochemical", "settings": "100 ml water, stirred gently, six devices", "description": "The final intra-vaginal devices, namely coupons fixed directly to tampons or coupons fixed to tampons via the sleeve were then compared for their ability to release an active pharmaceutical, in this case mefenamic acid, when placed in an aqueous environment. This enabled functional ‘equivalence’ of the devices to be confirmed. Intravaginal devices constructed by the direct application of coupons to tampons were compared to intravaginal devices constructed using the mesh sleeve. Devices were placed in beakers containing 100 ml water and stirred gently for varying periods of time. The fluid phase was removed brought to a […] with sodium hydroxide and the concentration of mefenamic determined by spectrophotometry."}, "[2]": {"assay": "clinical study: circulating plasma concentrations of mefenamic acid after intravaginal devices", "format": "in vivo", "settings": "human volunteers, intravaginal tampon with directly attached coupons", "description": "The purpose of the device described here is to administer mefenamic acid via the intravaginal route. In one clinical study, intravaginal devices, using the direct process of attachment of coupons to tampons were prepared to cGMP (Good Manufacturing Procedure); devices were prepared containing 20, 40 or 80 mg per tampon.\nThese were administered to human volunteers in a study conforming to Good Clinical Procedure and circulating plasma concentrations of mefenamic acid were determined after drawing blood samples."}, "[3]": {"settings": "20 mg mefenamic acid per tampon"}, "[4]": {"settings": "40 mg mefenamic acid per tampon"}, "[5]": {"settings": "80 mg mefenamic acid per tampon"}}, "data": [{"compound": "Cc1cccc(Nc2ccccc2C(=O)O)c1C", "note": "[mefenamic acid, 2-[2,3-Dimethylphenylamino] benzoid acid]", "values": [{"measurement": "mefenamic acid recovered in the aqueous phase (mean)", "setting": "[1]; devices with coupons attached via the mesh sleeve, 80 mg per sleeve", "result": 73.7, "unit": "mg"}, {"measurement": "mefenamic acid recovered in the aqueous phase (mean)", "setting": "[1]; devices with coupons directly attached to tampons, 80 mg per tampon", "result": 72.8, "unit": "mg"}, {"measurement": "Accumulated dose (0-7)", "setting": "[2]; [3]", "result": 44.7}, {"measurement": "Max. plasma conc.", "setting": "[2]; [3]", "result": 4.23, "unit": "ng/mL"}, {"measurement": "Accumulated dose (0-7)", "setting": "[2]; [4]", "result": 197}, {"measurement": "Max. plasma conc.", "setting": "[2]; [4]", "result": 14.9, "unit": "ng/mL"}, {"measurement": "Accumulated dose (0-7)", "setting": "[2]; [5]", "result": 257}, {"measurement": "Max. plasma conc.", "setting": "[2]; [5]", "result": 19.5, "unit": "ng/mL"}]}]}
